Here are results for 1 substance from patent US20220296680A1, “TREATMENT AND PREVENTION OF CARDIORENAL DAMAGE” (Oslo Universitetssykehus HF, priority 2021, published 2022).

The test system of series [1] is neprilysin and other endopeptidases. The conditions noted are these: cited from earlier work.
In series [2] the test system is patients with congestive heart failure. The conditions noted are these: Delacroix et al. 2016; cited from earlier work.
In series [3] the test system is ZSF1-Ob rats. Kind of series: Interventional study in pre-HFpEF ZSF1-Ob rats (obesity, diabetes, hypertension, diastolic dysfunction). In kind it is in vivo, rat. The protocol: A hybrid rat that was a cross between a ZDF female and an SHHF male was utilized.
Briefly, we performed an interventional study in pre-HFpEF rats (15 weeks old) affected by obesity, diabetes, hypertension, diastolic dysfunction, and administered either vehicle, VASTIRAS™ (proANP31-67; VAS; 50 ng/Kg/day administered subcutaneously via Alzet osmotic pump), ENTRESTO™ (ENT; 68 mg/Kg/day administered orally via gavage), or VAS+ENT (VAS/ENT).

The subject of series [4] is prostaglandin E2 (PGE2) formation in the kidney. The following applies: Chiou & Vesely 1995; cited from earlier work.
The conditions of series [5]: in vivo; cited from earlier work.
The test system of series [6] is ischemia-induced acute tubular necrosis and renal failure. The conditions noted are these: Recombinant proANP31-67; Clark et al. 2000; cited from earlier work.
Setting [7] is: ZSF1-Ob rats, autopsy, VAS 50 ng/Kg/day sc, ENT 68 mg/Kg/day oral, FIGS. 3-4.
[8] abbreviates: ZSF1-Ob rats, cardiac ultrasound.

As to “proANP31-67 (EVVPPQVLSEPNEEAGAALSPLPEVPPWTGEVSPAQR) [VAS, recombinant form of a human hormone]”, the “degradation by neprilysin and other endopeptidases” value in series [1] was “resistant”. Further, in series [2], the “treatment for renal impairment in patients with congestive heart failure” value was “safe and effective”. Further, in series [3] (ZSF1-Ob rats treated from 15 weeks old, assessed at 25 weeks-old, VAS 50 ng/Kg/day sc, ENT 68 mg/Kg/day oral gavage, FIGS. 5-6), the Elevated blood pressure entry is recorded as “not affected”. Moreover, in series [3] (setting [7]), the “atria weight (AW)/TL” value is listed as “tended to decrease”, the “body weight (BW)” value is “tended to decrease”, the “heart weight (HW)/tibia length (TL)” value is reported as “tended to decrease” and the “kidney weight (KW)/TL” value is reported as “tended to decrease”. Further, in series [3] (setting [8]), the cardiac output result is reported as “improved” and the “global longitudinal strain (GLS)” value is “tended to increase”. For the same substance, in series [3] (ZSF1-Ob rats, renal ultrasound, FIGS. 7-13), the renal vascularity entry was “preserved”. The “prostaglandin E2 (PGE2) formation in the kidney” value in series [4] was “stimulate”. Also, the excretion in urine result in series [5] is “excreted largely intact”. Further, the “ischemia-induced acute tubular necrosis and renal failure” value in series [6] was “protect”.
